In patent publication US8791102B2, “Acetanilide sphingosine-1-phosphate receptor antagonists” (Exelixis, Inc., priority 2008, dated 2014):

Target: T1, human S1P1 receptors (Homo sapiens, UniProt P21453)
T1 construct: host or cells: HEK293
Assay: S1P1R antagonist assay (fluorescent membrane potential dye, cAMP readout)
Type: cell-based
Settings: HEK293 cells expressing human S1P1 receptors and CNG channel; 500 nM NECA; S1P1R agonist 10 nM; 90 minutes; read-out: EC50 or IC50 value

T1 sequence (P21453 whole entry): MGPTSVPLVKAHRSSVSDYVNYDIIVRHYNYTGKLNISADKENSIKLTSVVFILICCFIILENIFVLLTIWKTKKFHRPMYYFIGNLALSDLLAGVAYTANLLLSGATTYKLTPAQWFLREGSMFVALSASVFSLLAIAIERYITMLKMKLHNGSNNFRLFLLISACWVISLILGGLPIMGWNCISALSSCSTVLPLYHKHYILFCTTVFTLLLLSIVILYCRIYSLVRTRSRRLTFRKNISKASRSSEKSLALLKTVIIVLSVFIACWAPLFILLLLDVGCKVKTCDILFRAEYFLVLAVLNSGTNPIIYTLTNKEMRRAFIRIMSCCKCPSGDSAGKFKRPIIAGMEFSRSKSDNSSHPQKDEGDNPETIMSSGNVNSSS

`O=C(COc1ccc(Cl)c(Cl)c1)NC(COCc1ccccc1)C(=O)Nc1ccc(Oc2ccccc2)cc1` (stereo not drawn) [Compound 370, N-(2-oxo-1-{[(phenylmethyl)oxy]methyl}-2-{[4-(phenyloxy)phenyl]amino}ethyl)-2-(3,4-dichlorophenoxy)acetamide] and `O=C(Cc1cc(Cl)ccc1Cl)N[C@@H](COCc1ccccc1)C(=O)Nc1ccc(Oc2ccccc2)cc1` [Compound 199, (S)-2-(2-(2,5-dichlorophenyl)acetamido)-3-benzyloxy-N-(4-phenoxyphenyl)propanamide] fall in the same range of IC50: 300 to 1000 nM for the first, 300 to 1000 nM for the second.

`COc1ccc(OC)c(CCC(=O)NC(COCc2ccccc2)C(=O)Nc2ccc(Oc3ccccc3)cc2)c1` (stereo not drawn) [Compound 382, N-(2-oxo-1-{[(phenylmethyl)oxy]methyl}-2-{[4-(phenyloxy)phenyl]amino}ethyl)-3-(2,5-dimethoxyphenyl)propanamide] and `COc1ccc(C(=O)NC(COCc2ccccc2)C(=O)Nc2ccc(Oc3ccccc3)cc2)c(C)c1` (stereo not drawn) [Compound 309, 2-methyl-4-(methyloxy)-N-(2-oxo-1-{[(phenylmethyl)oxy]methyl}-2-{[4-(phenyloxy)phenyl]amino}ethyl)benzamide] cannot be ordered by IC50: greater than 1000 nM for the first, greater than 1000 nM for the second.

First: O=C(CN1Cc2ccccc2C1)N[C@@H](COCc1ccccc1)C(=O)Nc1ccc(Oc2ccc(F)cc2)cc1 [Compound 240, (S)-3-(benzyloxy)-N-(4-(4-fluorophenoxy)phenyl)-2-(2-(isoindolin-2-yl)acetamido)propanamide]
Second: O=C(CN1CCN(c2ccccc2F)CC1)N[C@@H](COCc1ccccc1)C(=O)Nc1ccc(Oc2ccc(F)cc2)cc1 [Compound 127, (S)-3-(benzyloxy)-N-(4-(4-fluorophenoxy)phenyl)-2-(2-(4-(2-fluorophenyl)piperazin-1-yl)acetamido)propanamide]
The IC50 of the first is lower: 300 to 1000 nM for the first, greater than 1000 nM for the second. The first is the more potent here.

`CC(=O)N[C@@H](COCc1ccc(F)cc1)C(=O)Nc1ccc(Oc2ccc(F)cc2)cc1` [Compound 164, (S)-2-acetamido-3-(4-fluorobenzyloxy)-N-(4-(4-fluorophenoxy)phenyl)propanamide] and `O=C(CN1CCOCC1)N[C@@H](COCc1ccccc1)C(=O)Nc1ccc(Oc2ccc(F)cc2)cc1` [Compound 155, (S)-3-(benzyloxy)-N-(4-(4-fluorophenoxy)phenyl)-2-(2-morpholinoacetamido)propanamide] cannot be ordered by IC50: no more than 300 nM for the first, no more than 300 nM for the second.

`O=C(NC(COCc1ccccc1)C(=O)Nc1ccc(Oc2ccccc2)cc1)c1ccc(Cl)cc1` (stereo not drawn) [Compound 276, 4-chloro-N-(2-oxo-1-{[(phenylmethyl)oxy]methyl}-2-{[4-(phenyloxy)phenyl]amino}ethyl)benzamide] and `O=C(NC(COCc1ccccc1)C(=O)Nc1ccc(Oc2ccccc2)cc1)c1ccc(Cl)cc1F` (stereo not drawn) [Compound 387, 4-chloro-2-fluoro-N-(2-oxo-1-{[(phenylmethyl)oxy]methyl}-2-{[4-(phenyloxy)phenyl]amino}ethyl)benzamide] cannot be ordered by IC50: greater than 1000 nM for the first, greater than 1000 nM for the second.

`COCCOCCOCC(=O)NC(COCc1ccccc1)C(=O)Nc1ccc(Oc2ccccc2)cc1` (stereo not drawn) [Compound 315, N-(2-oxo-1-{[(phenylmethyl)oxy]methyl}-2-{[4-(phenyloxy)phenyl]amino}ethyl)-2-[2-(methoxy)ethoxy]ethoxyacetamide] and `CCOCC(=O)NC(COCc1ccccc1)C(=O)Nc1ccc(Oc2ccccc2)cc1` (stereo not drawn) [Compound 338, N-(2-oxo-1-{[(phenylmethyl)oxy]methyl}-2-{[4-(phenyloxy)phenyl]amino}ethyl)-2-ethoxyacetamide] cannot be ordered by IC50: greater than 1000 nM for the first, greater than 1000 nM for the second.

Compared with `Cc1ccc(OCC(=O)NC(COCc2ccccc2)C(=O)Nc2ccc(Oc3ccccc3)cc2)cc1` (stereo not drawn) [Compound 393, N-(2-oxo-1-{[(phenylmethyl)oxy]methyl}-2-{[4-(phenyloxy)phenyl]amino}ethyl)-2-(p-tolyloxy)acetamide], `COC(=O)c1ccc(C(=O)NC(COCc2ccccc2)C(=O)Nc2ccc(Oc3ccccc3)cc2)cc1` (stereo not drawn) [Compound 397, methyl 4-{[(2-oxo-1-{[(phenylmethyl)oxy]methyl}-2-{[4-(phenyloxy)phenyl]amino}ethyl)amino]carbonyl}benzoate] is lower in IC50: greater than 1000 nM for the first, 300 to 1000 nM for the second.

First: O=C(Cc1cnc[nH]1)N[C@@H](COCc1ccccc1)C(=O)Nc1ccc(Oc2cccc(Cl)c2)cc1 [Compound 148, (S)-2-(2-(1H-imidazol-4-yl)acetamido)-3-(benzyloxy)-N-(4-(3-chlorophenoxy)phenyl)propanamide]
Second: CC(C)CCC(=O)NC(COCc1ccccc1)C(=O)Nc1ccc(Oc2ccccc2)cc1 (stereo not drawn) [Compound 287, 4-methyl-N-(2-oxo-1-{[(phenylmethyl)oxy]methyl}-2-{[4-(phenyloxy)phenyl]amino}ethyl)pentanamide]
The IC50 of the first is lower: no more than 300 nM for the first, greater than 1000 nM for the second.

`Cc1cc(CC(=O)N2C[C@H](Cc3ccccc3)C[C@H]2C(=O)Nc2ccc(Oc3ccc(F)cc3)cc2)n[nH]1` [Compound 177, (2S,4R)-4-benzyl-N-(4-(4-fluorophenoxy)phenyl)-1-(2-(5-methyl-1H-pyrazol-3-yl)acetyl)pyrrolidine-2-carboxamide] and `O=C(Nc1ccc(Oc2ccc(F)cc2)cc1)[C@@H]1C[C@@H](Cc2ccccc2)CN1C(=O)CC(F)(F)F` [Compound 34, (2S,4R)-4-benzyl-N-(4-(4-fluorophenoxy)phenyl)-1-(3,3,3-trifluoropropanoyl)pyrrolidine-2-carboxamide] cannot be ordered by IC50: no more than 300 nM for the first, no more than 300 nM for the second.

`Cc1cc(F)ccc1C[C@@H]1C[C@@H](C(=O)Nc2ccc(Oc3ccc(F)cc3)cc2)N(C(=O)Cn2cncn2)C1` [Compound 8, (2S,4R)-1-(2-(1H-1,2,4-triazol-1-yl)acetyl)-4-(4-fluoro-2-methylbenzyl)-N-(4-(4-fluorophenoxy)phenyl)pyrrolidine-2-carboxamide] and `Cc1cccc(C[C@@H]2C[C@@H](C(=O)Nc3ccc(Oc4ccc(F)cc4)cc3)N(C(=O)Cn3cncn3)C2)c1` [Compound 171, (2S,4R)-1-(2-(1H-1,2,4-triazol-1-yl)acetyl)-N-(4-(4-fluorophenoxy)phenyl)-4-(3-methylbenzyl)pyrrolidine-2-carboxamide] cannot be ordered by IC50: no more than 300 nM for the first, no more than 300 nM for the second.

`O=C(Nc1ccc(Oc2ccc(F)cc2)cc1)[C@@H]1C[C@@H](Cc2ccc(F)cc2F)CN1C(=O)Cn1nccn1` [Compound 52, (2S,4R)-1-(2-(2H-1,2,3-triazol-2-yl)acetyl)-4-(2,4-difluorobenzyl)-N-(4-(4-fluorophenoxy)phenyl)pyrrolidine-2-carboxamide] and `O=C(Nc1ccc(Oc2ccc(F)cc2)cc1)[C@@H]1C[C@@H](Cc2ccc(Cl)s2)CN1C(=O)Cn1cncn1` [Compound 67, (2S,4S)-1-(2-(1H-1,2,4-triazol-1-yl)acetyl)-4-((5-chlorothien-2-yl)methyl)-N-(4-(4-fluorophenoxy)phenyl)pyrrolidine-2-carboxamide] cannot be ordered by IC50: no more than 300 nM for the first, no more than 300 nM for the second.

Compared with `C[C@@H]1CN(CC(=O)N[C@@H](COCc2ccccc2)C(=O)Nc2ccc(Oc3ccc(F)cc3)cc2)C[C@H](C)O1` [Compound 234, (S)-3-(benzyloxy)-2-(2-((2R,6S)-2,6-dimethylmorpholino)acetamido)-N-(4-(4-fluorophenoxy)phenyl)propanamide], `O=C(CN1C(=O)CSC1=S)NC(COCc1ccccc1)C(=O)Nc1ccc(Oc2ccccc2)cc1` (stereo not drawn) [Compound 335, N-(2-oxo-1-{[(phenylmethyl)oxy]methyl}-2-{[4-(phenyloxy)phenyl]amino}ethyl)-2-(4-oxo-2-thioxothiazolidin-3-yl)acetamide] is higher in IC50: 300 to 1000 nM for the first, greater than 1000 nM for the second. The first is the more potent here.

`CN(C(=O)Cc1c[nH]cn1)[C@@H](COCc1ccccc1)C(=O)Nc1ccc(Oc2ccccc2)cc1` [Compound 203, (S)-2-(2-(1H-imidazol-4-yl)-N-methylacetamido)-3-(benzyloxy)-N-(4-phenoxyphenyl)propanamide] and `O=C(NC(COCc1ccccc1)C(=O)Nc1ccc(Oc2ccccc2)cc1)c1ccsc1` (stereo not drawn) [Compound 389, N-(2-oxo-1-{[(phenylmethyl)oxy]methyl}-2-{[4-(phenyloxy)phenyl]amino}ethyl)thiophene-3-carboxamide] cannot be ordered by IC50: no more than 300 nM for the first, 300 to 1000 nM for the second.

`O=C(Nc1ccc(Oc2ccc(F)cc2)cc1)[C@@H]1C[C@@H](Cc2ccccc2)CN1C(=O)Cn1ccnn1` [Compound 10, (2S,4R)-1-(2-(1H-1,2,3-triazol-1-yl)acetyl)-4-benzyl-N-(4-(4-fluorophenoxy)phenyl)pyrrolidine-2-carboxamide] and `O=C(Nc1ccc(Oc2ccc(Cl)cc2)cc1)[C@@H]1C[C@@H](Cc2ccccc2)CN1C(=O)Cn1cncn1` [Compound 79, (2S,4R)-1-(2-(1H-1,2,4-triazol-1-yl)acetyl)-4-benzyl-N-(4-(4-chlorophenoxy)phenyl)pyrrolidine-2-carboxamide] cannot be ordered by IC50: no more than 300 nM for the first, no more than 300 nM for the second.

`O=C(NC(COCc1ccccc1)C(=O)Nc1ccc(Oc2ccccc2)cc1)C1CCC1` (stereo not drawn) [Compound 402, N-(2-oxo-1-{[(phenylmethyl)oxy]methyl}-2-{[4-(phenyloxy)phenyl]amino}ethyl)cyclobutanecarboxamide] and `CCCCCC(=O)NC(COCc1ccccc1)C(=O)Nc1ccc(Oc2ccccc2)cc1` (stereo not drawn) [Compound 295, N-(2-oxo-1-{[(phenylmethyl)oxy]methyl}-2-{[4-(phenyloxy)phenyl]amino}ethyl)hexanamide] cannot be ordered by IC50: greater than 1000 nM for the first, greater than 1000 nM for the second.

`O=C(Nc1ccc(Oc2ccc(F)cc2)cc1)[C@@H]1C[C@@H](Cc2ccccc2)CN1C(=O)Cc1c(F)cccc1F` [Compound 95, (2S,4R)-4-benzyl-1-(2-(2,6-difluorophenyl)acetyl)-N-(4-(4-fluorophenoxy)phenyl)pyrrolidine-2-carboxamide] and `O=C(Nc1ccc(Oc2ccc(F)cc2)cc1)[C@@H]1C[C@H](NCc2ccccc2)CN1C(=O)Cn1cncn1` [Compound 80, (2S,4S)-1-(2-(1H-1,2,4-triazol-1-yl)acetyl)-4-(benzylamino)-N-(4-(4-fluorophenoxy)phenyl)pyrrolidine-2-carboxamide] cannot be ordered by IC50: no more than 300 nM for the first, 300 to 1000 nM for the second.

For `COc1cc(C(=O)NC(COCc2ccccc2)C(=O)Nc2ccc(Oc3ccccc3)cc2)cc(OC)c1OC` (stereo not drawn) [Compound 291, 3,4,5-tris(methyloxy)-N-(2-oxo-1-{[(phenylmethyl)oxy]methyl}-2-{[4-(phenyloxy)phenyl]amino}ethyl)benzamide], the IC50 was greater than 1000 nM.
